The text below walks through data of patent US12371432B2, “Haloallylamine compounds and application thereof” (TransThera Sciences (Nanjing), Inc., priority 2019, dated 2025).

The nature of data set [1]: Rat blood-brain barrier evaluation. It counts as in vivo. To be noted: SD rats, intragastric 10 mg/kg; for concentrations in brain tissues (in words): over time. How it is done: (1) Animal Administration and Sampling Method:
The study compound A1, the compound A41 and PXS-4728 were dissolved in normal saline to prepare solutions. The prepared solutions were separately administered by intragastric administration to SD rats at a dose of 10 mg/kg. […] At each time point, samples were collected from three SD rats.
On the day of the study, the animals were fixed to collect 0.15 mL of blood from the jugular vein at each set time point, and the whole blood samples were put into anticoagulation tubes containing EDTA-K2. After blood sampling was completed, heart perfusion was immediately performed for the animals, and following the heart perfusion, brain tissue samples were collected.
After the whole blood samples were centrifuged under the condition of 1,524 g for 10 min, top plasma samples were collected into sample tubes. The tissue samples were weighed, added with 20% of aqueous methanol solution at a weight-to-volume ratio of 1:5 (tissue:homogenate) and homogenized. The biological samples were stored at −40° C. to −20° C. for analysis.
(4) Sample Analysis Method:
(§1) Plasma sample: The samples to be tested were taken out of the refrigerator, naturally thawed at room temperature and then swirled for 5 min, and 20 μL of plasma sample was accurately pipetted into 1.5 mL centrifuge tubes. 100 μL of internal standard working solution (solution of 5 ng/mL verapamil and 50 ng/mL glibenclamide in acetonitrile) was added, and uniform mixing was performed. After 1 min of swirling, centrifugation was performed at 13,000 rpm for 8 min. 40 μL of supernate was accurately pipetted into a 96-well plate added with 160 μL water/well in advance. Uniform mixing was performed by swirling for 10 min, followed by LC-MS/MS assay.
as §1, with “Brain tissue” for “Plasma”, “50” for “20”, “250” for “100”, “30” for “40”, “150” for “160”
(5) Data Processing Method:
Analyst 1.6.2 from AB Sciex was used to output concentration results of tested compounds. Microsoft Excel was used to calculate parameters such as mean value, standard deviation and variation coefficient (excluding those outputted directly by Analyst 1.6.2).

The target in a further data set is T1, rhVAP-1 (Homo sapiens, UniProt Q16853).
T1 construct: purchased PeproTech
T1 sequence (Q16853 27-763 limits assumed): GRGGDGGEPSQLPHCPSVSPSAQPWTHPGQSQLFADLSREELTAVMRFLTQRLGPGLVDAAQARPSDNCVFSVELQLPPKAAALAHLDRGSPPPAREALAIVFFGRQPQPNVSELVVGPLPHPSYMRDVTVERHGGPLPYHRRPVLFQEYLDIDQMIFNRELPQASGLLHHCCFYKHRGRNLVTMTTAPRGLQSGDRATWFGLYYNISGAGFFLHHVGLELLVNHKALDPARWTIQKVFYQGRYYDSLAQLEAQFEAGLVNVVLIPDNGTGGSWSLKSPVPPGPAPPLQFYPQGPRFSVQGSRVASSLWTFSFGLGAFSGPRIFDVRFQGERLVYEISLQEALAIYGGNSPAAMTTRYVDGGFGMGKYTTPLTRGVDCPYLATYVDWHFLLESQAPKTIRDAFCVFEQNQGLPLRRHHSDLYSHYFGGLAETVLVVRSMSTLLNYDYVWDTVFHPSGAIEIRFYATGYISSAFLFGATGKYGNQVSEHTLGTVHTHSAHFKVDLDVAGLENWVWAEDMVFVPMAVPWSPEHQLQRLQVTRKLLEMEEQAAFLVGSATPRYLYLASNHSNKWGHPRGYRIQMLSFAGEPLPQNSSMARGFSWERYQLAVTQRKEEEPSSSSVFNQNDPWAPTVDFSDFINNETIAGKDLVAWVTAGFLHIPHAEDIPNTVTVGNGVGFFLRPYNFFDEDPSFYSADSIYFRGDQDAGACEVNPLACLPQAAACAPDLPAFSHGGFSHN
Description: Inhibitory activity against rhVAP-1 enzyme (Biological Example 1). The data set is classed as biochemical. To be noted: Table 1; benzylamine substrate, Amplex Red/HRP. On the procedure:
1. Inhibitory Activity of Compounds Against rhVAP-1 Enzyme
(1) Instrument, Consumable and Reagent
Multifunctional microplate reader (MD, FlexStation3), black unclear-bottom 96-well plate (Corning), and rhVAP-1 (PeproTech)
(2) Preparation of Concentration Gradient Compound Solutions
An appropriate amount of the compound to be tested was taken, dissolved in DMSO to 10 mM and then stored. Before the study, an appropriate amount of mother liquor of the 10 mM compound to be tested was diluted with DMSO, so that 1 mM solution was obtained. The solution was then gradiently diluted 3-fold with DMSO, 10 concentration gradients in total. PBS was then used to carry out 100-fold dilution, so that compound solutions of 10× series of concentrations were prepared.
(3) Preparation of Enzyme Solutions
An appropriate amount of protein diluent was added into rhVAP-1 powder, obtaining 1 mg/mL of mother liquor for storage. Before the study, PBS was used to carry out dilution to obtain enzyme solutions of 4× concentrations.
(4) Preparation of Substrate Mixtures of 2× Concentrations
An appropriate amount of benzylamine was weighed and dissolved with PBS to obtain 200 mM of benzylamine solution. The benzylamine solution was added with 2 mM of Amplex Red mother liquor and 500 U/mL of HRP mother liquor and diluted with PBS to obtain substrate mixtures of 2× concentrations.
10 μL compound solutions of different concentrations, 25 μL rhVAP-1 enzyme solutions of 4× concentrations and 15 μL of PBS were first added into a 96-well plate, shaken to be mixed uniformly and then incubated at 37° C. for 30 min. 50 μL substrate mixtures of 2× concentrations were then added into each well, and the microplate reader was immediately used to detect fluorescence intensity of each well with 565 nm exciting light and 590 nm emission light for 5 min each time, 25 min in total. […]
V: fluorescence change rate; Ft: fluorescence reading at time point t; F0: initial fluorescence reading; Time: duration t; Vcmpd: fluorescence change rate of tested compound; Vmax: Max hole fluorescence change rate. […]

[2] abbreviates: rat, plasma, oral, 0.167 h, read-out: Average Plasma concentration (N=3).
[3] abbreviates: rat, plasma, oral, 1 h, read-out: Average Plasma concentration (N=3).
The mark [4] stands for this setting: rat, plasma, oral, 6 h, read-out: Average Plasma concentration (N=3).

As a reminder, the IC50 is the concentration needed to halve the response being measured. Lower therefore signals greater potency.

Where a name gives a salt, the structure may show the parent alone. Read-outs that look alike come from different tables or passages of the source.

On to `NC/C(=C\F)Cn1cc2c(=O)n(C3CC3)ccc2n1` [Compound A41, (E)-2-(2-(aminomethyl)-3-fluoroallyl)-5-cyclopropyl-2,5-dihydro-4H-pyrazolo[4,3-c]pyridin-4-one], for which the “Average Brain tissue concentration (N=3)” value in data set [1] (0.167 h), in data set [1] (1 h) and in data set [1] (6 h) was “BLOQ” in each case. For the same compound, the “concentrations in brain tissues (in words)” value in data set [1] is listed as “below the limit of detection”. In data set [1] (setting [2]), the concentration at 0.167 h was 624 ng/mL. For the same compound, the concentration at 1 h in data set [1] (setting [3]) turned out to be 1750 ng/mL. Besides, in data set [1] (setting [4]), the concentration at 6 h is 39.7 ng/mL.
With `NC/C(=C\F)Cn1ncc2c1CCN(C1CC1)C2=O` [Compound A2 hydrochloride, (E)-1-(2-(aminomethyl)-3-fluoroallyl)-5-cyclopropyl-1,5,6,7-tetrahydro-4H-pyrazolo[4,3-c]pyridin-4-one], at rhVAP-1, it took 73 nM to reach half-maximal inhibition (IC50).
`NC/C(=C\F)Cn1cc2c(n1)CCN(C1CC1)C2=O` [Compound A1, (E)-2-(2-(aminomethyl)-3-fluoroallyl)-5-cyclopropyl-2,5,6,7-tetrahydro-4H-pyrazolo[4,3-c]pyridin-4-one]: 38 nM corresponded to half-maximal inhibition on rhVAP-1 (IC50). The “Average Brain tissue concentration (N=3)” value in data set [1] (0.167 h) is reported as “BLOQ”. The “Mean brain tissue/plasma concentration ratio” value in data set [1] (0.167 h) is given as 0←. The “concentrations in brain tissues (in words)” value in data set [1] is given as “below the limit of detection”. For the same compound, the concentration at 1 h in data set [1] (rat, brain, oral, 1 h, read-out: Average Brain tissue concentration (N=3)) was found to be 39.1 ng/g; in data set [1] (setting [3]), 1300 ng/mL. Besides, the concentration at 6 h in data set [1] (rat, brain, oral, 6 h, read-out: Average Brain tissue concentration (N=3)) turned out to be 31.3 ng/g; in data set [1] (setting [4]) it was 80.7 ng/mL. In addition, the Kp at 1 h in data set [1] (rat, brain/plasma, oral, 1 h, read-out: Mean brain tissue/plasma concentration ratio) is 0.03. Besides, the Kp at 6 h in data set [1] (rat, brain/plasma, oral, 6 h, read-out: Mean brain tissue/plasma concentration ratio) was 0.39. In data set [1] (setting [2]), the concentration at 0.167 h was 158 ng/mL.
